Data from US20260232662A1, “MIR-124 INDUCER, AND PREPARATION METHOD THEREFOR AND USE THEREOF” (NANJING SYNNOCARE PHARMACEUTICAL TECHNOLOGY CO., LTD., priority 2023, published 2026).

What follows are compounds tested on miR-124 (assay: Induction of miR-124 expression in PBMC cells (qPCR)). Settings: Homo sapiens, 72 h, 0.1 μM compound, human PBMCs stimulated with PMA/ionomycin, miR-191 reference gene, read-out: miR-124 expression, Fold change vs DMSO.
Assay type: cell-based
Protocol: This study evaluated the ability of the compound of the present invention to influence miR-124 transcriptional activity in vitro. The experiment analyzed miR-124 expression in human PBMCs (Sailybio) using quantitative PCR (qPCR).
Thawed human PBMCs (1 mL) were added to 19 mL of culture medium (RPMI1640+10% hFBS+1‰ 2-mercaptoethanol) and the PBMCs were incubated in a cell culture incubator for 30 minutes. The PBMCs were collected and the cells (3.0*10^6 cells/well/3 mL) were resuspended in medium containing PMA (10 ng/mL; Invivogen) and ionomycin (200 ng/mL; Invivogen). The cells were incubated in a 6-well plate for 48 hours. Diluted compound was added to the cells to achieve a final concentration of 0.1 μM. After 72 hours, the samples were centrifuged and the cells were collected.
Total miRNA was extracted from the cells using the MiPure Cell/Tissue miRNA Kit (Vazyme) according to the manufacturer's instructions, followed by purification. The purified samples were treated with genomic DNA elimination buffer, and reverse transcription was performed using a GeneAmp PCR System. The resulting cDNA was subjected to quantitative real-time PCR (qPCR) analysis on a QuantStudio™ 7 Flex Real-Time PCR System. Data analysis was performed using the QuantStudio 7 software with default settings to automatically determine Ct values, and the results were exported. In this assay, miR-191 was used as the reference gene, and the DMSO-treated group served as the control. The relative expression of miR-124 was calculated using the following formula: […]
With `FC(F)(F)Oc1ccc(Nc2nc3ccc(Cl)cc3n3ccnc23)cc1Cl` [Compound B102, 8-chloro-N-(3-chloro-4-(trifluoromethoxy)phenyl) imidazolo[1,2-a] quinoxalin-4-amine] the fold induction at 0.1 µM was 27.3. `FC(F)(F)c1ccc(Nc2nc3ccc(Cl)cc3n3ccnc23)cc1` [Compound B103, 8-chloro-N-(4-(trifluoromethyl)phenyl) imidazolo[1,2-a] quinoxalin-4-amine] was tested, and the fold induction at 0.1 µM was 25.5. Compound `Fc1cc(Nc2nc3ccc(Cl)cc3n3ccnc23)ccc1C(F)(F)F` [Compound B104, 8-chloro-N-(3-fluoro-4-(trifluoromethyl)phenyl) imidazolo[1,2-a] quinoxalin-4-amine] has a fold induction at 0.1 µM of 28.1. Compound `FC(F)(F)c1ccc(Nc2nc3ccc(Cl)cc3n3ccnc23)cc1Cl` [Compound B105, 8-chloro-N-(3-chloro-4-(trifluoromethyl)phenyl) imidazolo[1,2-a] quinoxalin-4-amine] has a fold induction at 0.1 µM of 27.8. `FC1(F)Oc2ccc(Nc3nc4cc(Cl)ccc4n4ccnc34)cc2O1` [Compound B106, 7-chloro-N-(2,2-difluorobenzo[d] [1,3]dihydroxy-5-yl) imidazolo[1,2-a] quinoxalin-4-amine] gave a fold induction at 0.1 µM of 16.3. `Fc1cc(Nc2nc3cc(Cl)ccc3n3ccnc23)ccc1OC(F)(F)F` [Compound B107, 7-chloro-N-(3-fluoro-4-(trifluoromethoxy)phenyl) imidazolo[1,2-a] quinoxalin-4-amine] gave a fold induction at 0.1 µM of 24.4. `FC(F)(F)c1ccc(Nc2nc3cc(Cl)ccc3n3ccnc23)cc1` [Compound B109, 7-chloro-N-(4-(trifluoromethyl)phenyl) imidazolo[1,2-a] quinoxalin-4-amine] gave a fold induction at 0.1 µM of 26.4. `Fc1cc(Nc2nc3cc(Cl)ccc3n3ccnc23)ccc1C(F)(F)F` [Compound B110, 7-chloro-N-(3-fluoro-4-(trifluoromethyl)phenyl) imidazolo[1,2-a] quinoxalin-4-amine] showed a fold induction at 0.1 µM of 25.5. `FC(F)(F)c1ccc(Nc2nc3cc(Cl)ccc3n3ccnc23)cc1Cl` [Compound B111, 7-chloro-N-(3-chloro-4-(trifluoromethyl)phenyl) imidazolo[1,2-a] quinoxalin-4-amine] was tested, and the fold induction at 0.1 µM was 22.5. With `Fc1cc(NC2=Nc3cccc(Cl)c3N3CCN=C23)ccc1OC(F)(F)F` [Compound B119, 9-chloro-N-(3-fluoro-4-(trifluoromethoxy)phenyl)-1,2-dihydroimidazo[1,2-a] quinoxalin-4-amine] the fold induction at 0.1 µM was 25.4. Compound `FC(F)(F)Oc1ccc(NC2=Nc3cccc(Cl)c3N3CCN=C23)cc1Cl` [Compound B120, 9-chloro-N-(3-chloro-4-(trifluoromethoxy)phenyl)-1,2-dihydroimidazo[1,2-a] quinoxalin-4-amine] has a fold induction at 0.1 µM of 22.6. With `Fc1cc(NC2=Nc3cccc(Cl)c3N3CCN=C23)ccc1C(F)(F)F` [Compound B122, 9-chloro-N-(3-fluoro-4-(trifluoromethyl)phenyl)-1,2-dihydroimidazo[1,2-a] quinoxalin-4-amine] the fold induction at 0.1 µM was 27.3. With `FC(F)(F)c1ccc(NC2=Nc3cccc(Cl)c3N3CCN=C23)cc1Cl` [Compound B123, 9-chloro-N-(3-chloro-4-(trifluoromethyl)phenyl)-1,2-dihydroimidazo[1,2-a] quinoxalin-4-amine] the fold induction at 0.1 µM was 24.3. `Fc1cc(Cl)cc2c1N1CCN=C1C(Nc1ccc(OC(F)(F)F)cc1)=N2` [Compound B130, 7-chloro-9-fluoro-N-(4-(trifluoromethoxy)phenyl)-1,2-dihydroimidazo[1,2-a] quinoxalin-4-amine] was tested, and the fold induction at 0.1 µM was 25.6. Work on `Fc1cc(NC2=Nc3cc(Cl)cc(F)c3N3CCN=C23)ccc1OC(F)(F)F` [Compound B131, 7-chloro-9-fluoro-N-(3-fluoro-4-(trifluoromethoxy)phenyl)-1,2-dihydroimidazo[1,2-a] quinoxalin-4-amine] yielded a fold induction at 0.1 µM of 27. `Fc1cc(Cl)cc2c1N1CCN=C1C(Nc1ccc(OC(F)(F)F)c(Cl)c1)=N2` [Compound B132, 7-chloro-N-(3-chloro-4-(trifluoromethoxy)phenyl)-9-fluoro-1,2-dihydroimidazo[1,2-a] quinoxalin-4-amine] showed a fold induction at 0.1 µM of 27.6. `Fc1cc(Cl)cc2c1N1CCN=C1C(Nc1ccc(C(F)(F)F)cc1)=N2` [Compound B133, 7-chloro-9-fluoro-N-(4-(trifluoromethyl)phenyl)-1,2-dihydroimidazo[1,2-a] quinoxalin-4-amine] was tested, and the fold induction at 0.1 µM was 26.3. `Fc1cc(NC2=Nc3cc(Cl)cc(F)c3N3CCN=C23)ccc1C(F)(F)F` [Compound B134, 7-chloro-9-fluoro-N-(3-fluoro-4-(trifluoromethyl)phenyl)-1,2-dihydroimidazo[1,2-a] quinoxalin-4-amine] showed a fold induction at 0.1 µM of 27.5. For `Fc1cc(Cl)cc2c1N1CCN=C1C(Nc1ccc(C(F)(F)F)c(Cl)c1)=N2` [Compound B135, 7-chloro-N-(3-chloro-4-(trifluoromethyl)phenyl)-9-fluoro-1,2-dihydroimidazo[1,2-a] quinoxalin-4-amine], the fold induction at 0.1 µM was 24.9. Work on `FC(F)(F)Oc1ccc(NC2=Nc3cc(Cl)cc(Cl)c3N3CCN=C23)cc1` [Compound B136, 7,9-dichloro-N-(4-(trifluoromethoxy)phenyl)-1,2-dihydroimidazo[1,2-a] quinoxalin-4-amine] yielded a fold induction at 0.1 µM of 34.1. For `Fc1cc(NC2=Nc3cc(Cl)cc(Cl)c3N3CCN=C23)ccc1OC(F)(F)F` [Compound B137, 7,9-dichloro-N-(3-fluoro-4-(trifluoromethoxy)phenyl)-1,2-dihydroimidazo[1,2-a] quinoxalin-4-amine], the fold induction at 0.1 µM was 31.1. Compound `FC(F)(F)Oc1ccc(NC2=Nc3cc(Cl)cc(Cl)c3N3CCN=C23)cc1Cl` [Compound B138, 7,9-dichloro-N-(3-chloro-4-(trifluoromethoxy)phenyl)-1,2-dihydroimidazo[1,2-a] quinoxalin-4-amine] has a fold induction at 0.1 µM of 29.9. In the case of `Fc1cc(NC2=Nc3cc(Cl)cc(Cl)c3N3CCN=C23)ccc1C(F)(F)F` [Compound B140, 7,9-dichloro-N-(3-fluoro-4-(trifluoromethyl)phenyl)-1,2-dihydroimidazo[1,2-a] quinoxalin-4-amine], the fold induction at 0.1 µM is reported as 38.4. `FC(F)(F)c1ccc(NC2=Nc3cc(Cl)cc(Cl)c3N3CCN=C23)cc1Cl` [Compound B141, 7,9-dichloro-N-(3-chloro-4-(trifluoromethyl)phenyl)-1,2-dihydroimidazo[1,2-a] quinoxalin-4-amine] was tested, and the fold induction at 0.1 µM was 36.2. `FC(F)(F)Oc1ccc(NC2=Nc3ccc(Cl)cc3N3CCN=C23)cc1` [Compound B142, 8-chloro-N-(4-(trifluoromethoxy)phenyl)-1,2-dihydroimidazo[1,2-a] quinoxalin-4-amine] showed a fold induction at 0.1 µM of 25.6. For `Fc1cc(NC2=Nc3ccc(Cl)cc3N3CCN=C23)ccc1OC(F)(F)F` [Compound B143, 8-chloro-N-(3-fluoro-4-(trifluoromethoxy)phenyl)-1,2-dihydroimidazo[1,2-a] quinoxalin-4-amine], the fold induction at 0.1 µM was 28.4. Compound `FC(F)(F)Oc1ccc(NC2=Nc3ccc(Cl)cc3N3CCN=C23)cc1Cl` [Compound B144, 8-chloro-N-(3-chloro-4-(trifluoromethoxy)phenyl)-1,2-dihydroimidazo[1,2-a] quinoxalin-4-amine] has a fold induction at 0.1 µM of 27.8. Compound `FC(F)(F)c1ccc(NC2=Nc3ccc(Cl)cc3N3CCN=C23)cc1` [Compound B145, 8-chloro-N-(4-(trifluoromethyl)phenyl)-1,2-dihydroimidazo[1,2-a] quinoxalin-4-amine] has a fold induction at 0.1 µM of 30.
